Results taken from patent US20140121407A1, “DEUTERATED PHENYLPROPIONIC ACID DERIVATIVE” (RESEARCH FOUNDATION ITSUU LABORATORY, priority 2011, published 2014).
Read-outs that look alike come from different tables or passages of the source.

Test: In vivo kinetic parameters in mouse after oral administration (plasma, LC/MS)
Settings: for half-life: read-out: t½ (converted)
Experimental: 6-Week old ddY male mice were starved for 12 hours, and then used for the experiment. To the mice, Am80 (3.30 mg/kg), 3-[4-[(5,6,7,8-tetrahydro-5,5,8,8-tetramethyl-2-naphthalenyl)carbamoyl]phenyl]propionic acid (protium compound, M700, 3.56 mg/kg), or 3-[4-[(5,6,7,8-tetrahydro-5,5,8,8-tetramethyl-2-naphthalenyl)carbamoyl]phenyl]propionic acid-2,2,3,3-d4 (deuterated propionic acid derivative, Y616, 3.60 mg/kg) was orally administered (the dose in terms of molar amount was 9.4 μmol/kg for all the compounds). A 94 mM solution of each compound in DMSO was prepared, and suspended in 0.5% methylcellulose so as to be diluted 100 times, and the suspension was orally administered at a dose of 10 ml/kg by using a 1-ml syringe and a catheter for oral administration.
After 15 minutes, 30 minutes, 1 hour, 2 hours, 3 hours, 6 hours, 12 hours, and 24 hours from the administration of each compound, whole blood was collected from the mouse abdominal aorta under diethyl ether anesthesia by using a heparin-treated glass syringe and a 26G hypodermic needle (five mice were used for each compound). The collected blood was centrifuged at 13,700×g and 4° C. for 5 minutes to separate the plasma, and the separated plasma was stored at −30° C.
The plasma (100 μL) was put into a 1.5-ml tube, and added with ethyl acetate (400 μl), the mixture was stirred, ultrasonicated for 1 minute, and centrifuged at 13,700×g and 20° C. for 3 minutes, and the supernatant was collected. The residue was added with ethyl acetate (400 μl), and the mixture was subjected once again to the aforementioned procedure. The collected supernatant was put into a 1.5-ml tube in an appropriate volume, and dried with nitrogen gas. The residue was dissolved in methanol (100 μl) to obtain a sample for LC/MS.
All the samples were used for […] in a volume of 5 μl. The LC/MS apparatus used was constituted with Waters 2695 Separations Module (Nihon Waters) and 3100 Mass Detector (Nihon Waters). Each compound was quantified by the absolute calibration curve method.

[1] = Administration of M700, 3.56 mg/kg (9.4 μmol/kg) oral, ddY male mice, plasma, label = analyte measured
[2] = mouse, Administration of M700, 3.56 mg/kg (9.4 μmol/kg) oral, ddY male mice, plasma, label = analyte measured
[3] = mouse, Administration of M700, 3.56 mg/kg (9.4 μmol/kg) oral, ddY male mice, plasma, label = analyte measured, read-out: AUC
[4] = mouse, Administration of M700, 3.56 mg/kg (9.4 μmol/kg) oral, ddY male mice, plasma, label = analyte measured, read-out: Tmax
[5] = mouse, 3.3 mg/kg, Administration of AM80, 3.30 mg/kg (9.4 μmol/kg) oral, ddY male mice, plasma
[6] = mouse, 3.6 mg/kg, Administration of Y616, 3.60 mg/kg (9.4 μmol/kg) oral, ddY male mice, plasma, label = analyte measured
[7] = mouse, 3.6 mg/kg, Administration of Y616, 3.60 mg/kg (9.4 μmol/kg) oral, ddY male mice, plasma, label = analyte measured, read-out: AUC
[8] = mouse, 3.6 mg/kg, Administration of Y616, 3.60 mg/kg (9.4 μmol/kg) oral, ddY male mice, plasma, label = analyte measured, read-out: Tmax
[9] = oral, mouse, after administration of the labelled prodrug
[10] = oral, mouse, compared with the protium compound

Cmax [2]	AUC [3]	Tmax [4]	half-life [2]	Cmax [6]	AUC [7]	Tmax [8]	half-life [6]	Molecule	other results
								4-[(5,6,7,8-tetrahydro-5,5,8,8-tetramethyl-2-naphthalenyl)carbamoyl]phenylcinnamic acid [Example M700-M1]	AUC [1]: 0.54 µM·h; Cmax [1]: 710 nM; Tmax [1]: 30 min; t½ [1]: 28.2 min
1620 nM	1.32 µM·h	30 min	28.2 min					CC1(C)CCC(C)(C)c2cc(NC(=O)c3ccc(CCC(=O)O)cc3)ccc21 [Example M700, 3-[4-[(5,6,7,8-tetrahydro-5,5,8,8-tetramethyl-2-naphthalenyl)carbamoyl]phenyl]propionic acid]	
20 nM	0.02 µM·h	30 min	25.8 min					CC1(C)CCC(C)(C)c2cc(NC(=O)c3ccc(C(O)CC(=O)O)cc3)ccc21 (centres unmarked) [Example M700-M2, 3-[4-[(5,6,7,8-tetrahydro-5,5,8,8-tetramethyl-2-naphthalenyl)carbamoyl]phenyl]-3-hydroxypropionic acid]	
1060 nM	2.74 µM·h	60 min	73.2 min	930 nM	3.48 µM·h	60 min	133 min	CC1(C)CCC(C)(C)c2cc(NC(=O)c3ccc(C(=O)O)cc3)ccc21 [Am80, 4-[(5,6,7,8-tetrahydro-5,5,8,8-tetramethyl-2-naphthalenyl)carbamoyl]benzoic acid]	Cmax [5]: 1870 nM; AUC (mouse, 3.3 mg/kg, Administration of AM80, 3.30 mg/kg (9.4 μmol/kg) oral, ddY male mice, plasma, read-out: AUC): 2.8 µM·h; Tmax (mouse, 3.3 mg/kg, Administration of AM80, 3.30 mg/kg (9.4 μmol/kg) oral, ddY male mice, plasma, read-out: Tmax): 30 min; half-life [5]: 48.6 min
				1370 nM	1.95 µM·h	30 min	49.8 min	[2H]C([2H])(C(=O)O)C([2H])([2H])c1ccc(C(=O)Nc2ccc3c(c2)C(C)(C)CCC3(C)C)cc1 [Example Y616, 3-[4-[(5,6,7,8-tetrahydro-5,5,8,8-tetramethyl-2-naphthalenyl)carbamoyl]phenyl]propionic acid-2,2,3,3-d4]	metabolic intermediate M1 generated [9]: markedly decreased; metabolic intermediate M2 generated [9]: not observed; AUC of the prodrug [10]: increased; half-life (t½) of the prodrug [10]: extended
